# In publication PMC8344022, “Small-molecule inhibitor of AF9/ENL-DOT1L/AF4/AFF4 interactions suppresses malignant gene expression and tumor growth” (Theranostics, 2021):
# Read-outs that look alike come from different tables or passages of the source.
# Legend:
# [1] = system: HoxA9, Meis1 and Myc expression in MV4;11 cells; test: qPCR of MLL target genes; type: cell-based; settings: 4 days
# Method: (§1) Next, compound 1 was tested for its ability to change expression of characteristic MLL-r leukemia genes HoxA9, Meis1 and Myc. Myc is also overexpressed in a broad range of AML and other cancers. […] (Figure S5), presumably because SEC is not recruited there.
# (§2) RNA extraction and Quantitative real-time PCR (qPCR). 10^5 cells/ml were incubated with a compound for 4 days and the RNA was extracted using RNeasy mini kit (#74104, Qiagen). 100-1000 ng of total RNA was reverse transcribed using iScript™ Reverse Transcription Supermix (Bio-Rad) using the manufacturer's protocol. Quantitative real-time PCR was carried out using Fast SYBR Green Master Mix (Applied Biosystems) according to the manufacturer's instructions. Measurements were performed in triplicate, using GAPDH as the reference gene. Real-time PCR was performed using Biosystems Step One Plus detection system. The following sequences of primers are used: […]
# [2] = system: HoxA9, Meis1 and Myc expression in Molm-13 cells; test: qPCR of MLL target genes; type: cell-based; settings: 4 days
# Method: as §1, §2
# [3] = biological target: T1, AF9-AFF4 interaction (Homo sapiens, UniProt P42568); test: Alpha assay, AF9-AFF4 interaction; type: binding; settings: read-out: IC50, inhibition of AF9-AFF4 interaction
# T1 construct: cDNA for human AF9 AHD domain (475-568) and ENL AHD domain (489-559) was synthesized; made in house; host or cells: E. coli BL21(DE3)
# Method: ENL is also a major MLL fusion partner (~10%). The AHD domains of human ENL and AF9 share a high homology with 82% identity and 89% similarity (Figure S1A). […] Our attempts to develop an Alpha assay for ENL-DOT1L failed. […] Compound 1's activity against ENL-DOT1L was therefore not determined.
# Alpha assays. Alpha assays were developed using Perkin-Elmer AlphaLisa anti-MBP kit, which contains streptavidin donor beads and anti-MBP acceptor beads. The assay was performed using a MBP-protein (5 nM), a biotinylated peptide (40 nM), and increasing concentrations of a compound in 25 µL buffer (PBS with 0.5 % BSA, pH 7.5) in 384-well plates according to the manufacturer's protocol and measured with a Tecan SPARK microplate reader. Data were imported into Prism (version 5.0), and IC50 values from 3 independent experiments with standard deviation were obtained by using a standard dose-response curve fitting.
# [4] = system: cancer cells; test: Antiproliferation assays, cancer cell panel; type: cell-based
# Method: The differential antiproliferation activities of compound 1 is consistent with its ability to suppress DOT1L/H3K79 methylation and SEC regulated gene expression, which are critical to MLL-r leukemia and Myc-driven blood cancer, but largely dispensable to other solid tumor cells.
# (§3) Antiproliferation assay. Proliferation inhibition assays for suspension blood cancer cells were performed using an XTT assay kit (Roche). Proliferation inhibition assays for solid tumor cell lines MCF-7, MDA-MB-231, Panc1, Panc28 were performed using an MTT assay (Sigma). The antiproliferation EC50 values were determined using Prism 5 and the reported results were the mean values of at least three independent experiments. The incubation time for compound 1 was 7 days and that for EPZ4777 was 14 days.
# [5] = biological target: p300 (Homo sapiens, UniProt Q09472); test: p300 histone acetyltransferase inhibition; type: biochemical; settings: at 100 µM (Figure S3: 30 or 100 µM)
# Chain of p300 (Q09472 whole entry, species assumed): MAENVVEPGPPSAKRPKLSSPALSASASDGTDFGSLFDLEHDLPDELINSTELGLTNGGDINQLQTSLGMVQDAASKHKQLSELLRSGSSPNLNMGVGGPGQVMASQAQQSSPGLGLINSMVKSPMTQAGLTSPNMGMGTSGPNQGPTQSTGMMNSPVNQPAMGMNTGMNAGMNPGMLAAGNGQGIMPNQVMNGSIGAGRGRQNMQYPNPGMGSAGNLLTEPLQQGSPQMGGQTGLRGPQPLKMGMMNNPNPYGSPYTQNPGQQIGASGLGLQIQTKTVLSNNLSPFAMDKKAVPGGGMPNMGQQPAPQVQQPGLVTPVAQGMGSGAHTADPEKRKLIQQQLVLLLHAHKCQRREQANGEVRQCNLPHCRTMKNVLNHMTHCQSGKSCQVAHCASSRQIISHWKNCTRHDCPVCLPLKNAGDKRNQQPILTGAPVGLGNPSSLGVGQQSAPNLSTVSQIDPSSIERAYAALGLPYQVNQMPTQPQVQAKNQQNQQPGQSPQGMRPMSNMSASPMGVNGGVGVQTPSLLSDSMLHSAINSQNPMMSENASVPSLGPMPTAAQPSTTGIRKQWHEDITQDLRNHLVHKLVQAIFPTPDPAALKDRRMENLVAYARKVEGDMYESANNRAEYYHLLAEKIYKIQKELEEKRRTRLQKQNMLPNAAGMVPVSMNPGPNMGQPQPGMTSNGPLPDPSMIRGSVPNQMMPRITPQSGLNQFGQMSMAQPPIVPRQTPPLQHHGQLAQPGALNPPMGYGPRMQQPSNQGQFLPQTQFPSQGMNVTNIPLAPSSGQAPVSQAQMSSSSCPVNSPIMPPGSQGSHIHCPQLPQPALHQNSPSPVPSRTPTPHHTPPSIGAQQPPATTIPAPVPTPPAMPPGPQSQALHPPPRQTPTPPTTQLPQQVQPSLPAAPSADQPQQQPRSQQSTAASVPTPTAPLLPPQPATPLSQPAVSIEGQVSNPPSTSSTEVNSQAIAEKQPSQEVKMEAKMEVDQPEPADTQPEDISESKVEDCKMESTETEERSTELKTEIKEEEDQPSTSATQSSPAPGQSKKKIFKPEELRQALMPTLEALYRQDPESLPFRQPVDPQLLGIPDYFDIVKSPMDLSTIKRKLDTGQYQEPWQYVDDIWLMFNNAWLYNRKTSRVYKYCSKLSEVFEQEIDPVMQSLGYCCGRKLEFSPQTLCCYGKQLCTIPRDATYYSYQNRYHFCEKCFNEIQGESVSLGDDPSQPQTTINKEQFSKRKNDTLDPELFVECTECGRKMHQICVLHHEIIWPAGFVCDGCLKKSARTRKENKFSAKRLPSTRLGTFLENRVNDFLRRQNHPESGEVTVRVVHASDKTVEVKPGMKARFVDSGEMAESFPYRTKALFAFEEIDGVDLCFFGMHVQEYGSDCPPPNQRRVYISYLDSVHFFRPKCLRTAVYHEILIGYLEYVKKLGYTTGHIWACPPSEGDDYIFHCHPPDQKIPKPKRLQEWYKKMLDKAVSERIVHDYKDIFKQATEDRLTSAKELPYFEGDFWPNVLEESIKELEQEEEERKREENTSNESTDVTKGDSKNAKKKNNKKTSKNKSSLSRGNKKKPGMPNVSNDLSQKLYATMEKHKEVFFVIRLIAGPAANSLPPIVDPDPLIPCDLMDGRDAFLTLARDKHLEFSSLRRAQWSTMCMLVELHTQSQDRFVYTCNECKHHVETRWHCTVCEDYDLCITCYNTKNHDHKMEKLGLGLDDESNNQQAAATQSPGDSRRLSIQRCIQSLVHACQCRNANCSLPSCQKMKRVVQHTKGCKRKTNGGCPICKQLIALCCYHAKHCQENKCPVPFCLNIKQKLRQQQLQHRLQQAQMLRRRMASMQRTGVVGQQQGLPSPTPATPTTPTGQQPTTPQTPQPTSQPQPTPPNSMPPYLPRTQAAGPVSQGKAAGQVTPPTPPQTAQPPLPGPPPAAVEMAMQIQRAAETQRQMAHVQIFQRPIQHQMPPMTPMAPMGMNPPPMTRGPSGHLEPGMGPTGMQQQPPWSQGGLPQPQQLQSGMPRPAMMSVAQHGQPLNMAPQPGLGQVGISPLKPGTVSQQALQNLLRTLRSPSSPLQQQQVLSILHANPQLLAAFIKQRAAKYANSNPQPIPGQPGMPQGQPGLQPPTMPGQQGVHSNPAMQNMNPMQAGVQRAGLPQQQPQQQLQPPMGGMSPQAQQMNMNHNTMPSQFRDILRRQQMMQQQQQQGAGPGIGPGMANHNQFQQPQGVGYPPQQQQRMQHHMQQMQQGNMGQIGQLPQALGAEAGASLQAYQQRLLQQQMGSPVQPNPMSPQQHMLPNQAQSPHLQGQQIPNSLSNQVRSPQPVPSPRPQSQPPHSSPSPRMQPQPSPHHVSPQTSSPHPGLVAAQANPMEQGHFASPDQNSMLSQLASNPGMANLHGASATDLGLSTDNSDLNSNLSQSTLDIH
# Method: (§4) Inhibition of DOT1L, LSD1 and p300 was performed using our previously reported methods, [37], [38].
# (§5) LSD1, and p300 histone acetyltransferase at 30 or 100 µM, using our previous reported methods [Ref. 36, 37,
# (§6) (1 picture or pasted object on this page, not shown here)
# [6] = system: MCF-7 cells; test: Antiproliferation assay (MTT); type: cell-based; settings: Homo sapiens, MCF7, 168 h, 7-day incubation, read-out: Cytotoxicity EC50
# Method: as §3
# [7] = biological target: DOT1L (Homo sapiens, UniProt Q8TEK3); test: DOT1L enzyme inhibition; type: biochemical; settings: at 100 µM (Figure S3: 30 or 100 µM)
# Chain of DOT1L (Q8TEK3 1-472): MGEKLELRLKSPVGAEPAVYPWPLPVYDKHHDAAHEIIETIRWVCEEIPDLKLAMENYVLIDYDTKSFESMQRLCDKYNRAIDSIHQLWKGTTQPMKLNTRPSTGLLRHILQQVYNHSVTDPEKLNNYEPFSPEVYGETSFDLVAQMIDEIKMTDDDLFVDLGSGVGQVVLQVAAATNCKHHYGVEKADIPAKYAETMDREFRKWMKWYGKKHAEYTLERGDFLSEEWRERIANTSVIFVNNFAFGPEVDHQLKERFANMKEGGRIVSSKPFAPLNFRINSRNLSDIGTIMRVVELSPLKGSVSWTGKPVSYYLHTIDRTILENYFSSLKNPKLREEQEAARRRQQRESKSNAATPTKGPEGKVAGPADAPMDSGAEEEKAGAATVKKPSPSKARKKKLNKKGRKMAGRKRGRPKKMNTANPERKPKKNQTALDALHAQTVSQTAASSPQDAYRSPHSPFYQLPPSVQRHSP
# Method: as §4, §5, §6
# [8] = biological target: T2, AF9-DOT1L interaction (Homo sapiens, UniProt P42568); test: Fluorescence polarization (FP) inhibition assay, AF9-DOT1L; type: binding
# T2 construct: cDNA for human AF9 AHD domain (475-568) and ENL AHD domain (489-559) was synthesized; made in house; host or cells: E. coli BL21(DE3)
# T2 sequence (P42568 475-568): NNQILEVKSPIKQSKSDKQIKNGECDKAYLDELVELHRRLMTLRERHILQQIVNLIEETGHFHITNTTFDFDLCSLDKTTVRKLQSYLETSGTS
# Text: We developed an Alpha (amplified luminescent proximity homogeneous assay) assay to determine the binding and inhibition of the PPI between maltose-binding protein (MBP)-tagged AF9 AHD and a biotin-labeled DOT1L peptide, using AlphaLisa streptavidin donor beads and anti-MBP acceptor beads. Laser excitation to the donor beads generates singlet oxygen radicals, which can travel for <200 nm in solution and cannot reach the free acceptor beads. The PPI brings the DOT1L coated donor beads and AHD coated acceptor beads together, allowing the radicals to activate the acceptor beads and produce luminescence. […] We also developed a fluorescence polarization (FP) assay. A fluorescein-labeled DOT1L peptide has a higher freedom in solution with a lower polarization value.
# Fluorescence polarization assay. It was performed in 96-well black microplates with each well containing a Fluorescein-labeled peptide (2 nM) and increasing concentration of a AF9/ENL protein in a buffer (20 mM HEPES, pH 7.5, 0.01% Triton X-100, 100 µL) for Kd determination. For IC50 determination, a Fluorescein-labeled peptide (2 nM), AF9/ENL protein (100 nM) and increasing concentration of a compound in the same buffer were placed in each well. Upon incubation of 1h, the FP value of each well was determined using a Tecan SPARK microplate reader. Data were similarly processed to obtain Kd or IC50 values.
# [9] = system: nuclear protein levels in MV4;11 cells; test: Western blot of nuclear proteins; type: cell-based
# Method: Western blot. 3x10^6 cells/well were treated with increasing concentrations of a compound for 3 days and nuclear proteins extracted with the EpiQuik Nuclear Extraction Kit (Epigentek) according to the manufacturer's protocol. Equal amounts of proteins were separated on SDS-PAGE and transferred to PVDF membranes. The blots were probed with primary antibodies, followed by anti-rabbit or anti-mouse IgG (Thermo Scientific) secondary antibodies. The primary antibodies used in this research were MBP Mouse mAb (#2396, Cell signaling), DOT1L Rabbit mAb (#77087, Cell signaling), MLL-N Rabbit mAb (#14689, Cell signaling), ENL Rabbit mAb (#14893, Cell signaling), Di-Methyl-Histone H3K79 Rabbit mAb (#5427, Cell signaling), Mono-Methyl-Histone H3K79 Rabbit mAb (#9398, Cell signaling), Histone H3 Rabbit mAb (#4499, Cell signaling), AF4 Rabbit pAb (#NBP1-28705, Novusbio) and AFF4 Rabbit pAb (#ab103586, Abcam).
smiles,measurement,setting,value
CC(C)(C)c1ccc(-n2cc(C(=O)NC3CCNCC3)nc2-c2ccccc2)cc1 [Compound 1],"Expression of MLL target genes HoxA9, Meis1 and Myc",[1],dose-dependently suppressed expression
same,"Expression of MLL target genes HoxA9, Meis1 and Myc",[2],dose-dependently suppressed expression
same,IC50,[3],2.5 ± 0.1 µM
same,EC50,"[4]; 168 h, MLL-r leukemia (MV4;11, Molm-13, THP-1) and Myc-driven blood cancer cells, 7 days, read-out: EC50 against proliferation (range)",3 to 11 µM
same,Antiproliferative activity against solid tumor cells,"[4]; MCF-7, MDA-MB-231 and two pancreatic cancer cells",reduced activity
same,EC50,"[4]; MLL-r leukemia cells Molm-13, MV4;11 and THP-1, read-out: EC50s against proliferation (range)",4.7 to 11 µM
same,EC50,"[4]; Myc-driven blood cancer cells HL60, Kasumi-1, Jurkat, RPMI8226, U266, read-out: EC50s against proliferation (range)",3.3 to 9.7 µM
same,Inhibition of p300 histone acetyltransferase activity,[5],did not significantly inhibit
same,EC50,[6],19.8 ± 0.3 µM
same,Inhibition of DOT1L enzyme activity,[7],did not significantly inhibit
same,IC50,[8],3.2 µM
same,Nuclear level of AFF4,[9]; 10 μM,did not cause significantly decreased AFF4
same,Nuclear protein levels of H3K79me1 and me2 and ENL,[9]; 3 days,reduced the nuclear protein levels of H3K79me1 and me2 and ENL
